US8946223B2, “Substituted hydroxamic acids and uses thereof” (Millennium Pharmaceuticals, Inc., priority 2010, dated 2015)

target: T1, purified human HDAC6 (Homo sapiens, UniProt Q9UBN7); experiment: HDAC6 enzyme assay; type: biochemical; settings: bin: less than 100 nM
T1 construct: purchased BPS Bioscience 5006
T1 sequence (Q9UBN7 1-1215): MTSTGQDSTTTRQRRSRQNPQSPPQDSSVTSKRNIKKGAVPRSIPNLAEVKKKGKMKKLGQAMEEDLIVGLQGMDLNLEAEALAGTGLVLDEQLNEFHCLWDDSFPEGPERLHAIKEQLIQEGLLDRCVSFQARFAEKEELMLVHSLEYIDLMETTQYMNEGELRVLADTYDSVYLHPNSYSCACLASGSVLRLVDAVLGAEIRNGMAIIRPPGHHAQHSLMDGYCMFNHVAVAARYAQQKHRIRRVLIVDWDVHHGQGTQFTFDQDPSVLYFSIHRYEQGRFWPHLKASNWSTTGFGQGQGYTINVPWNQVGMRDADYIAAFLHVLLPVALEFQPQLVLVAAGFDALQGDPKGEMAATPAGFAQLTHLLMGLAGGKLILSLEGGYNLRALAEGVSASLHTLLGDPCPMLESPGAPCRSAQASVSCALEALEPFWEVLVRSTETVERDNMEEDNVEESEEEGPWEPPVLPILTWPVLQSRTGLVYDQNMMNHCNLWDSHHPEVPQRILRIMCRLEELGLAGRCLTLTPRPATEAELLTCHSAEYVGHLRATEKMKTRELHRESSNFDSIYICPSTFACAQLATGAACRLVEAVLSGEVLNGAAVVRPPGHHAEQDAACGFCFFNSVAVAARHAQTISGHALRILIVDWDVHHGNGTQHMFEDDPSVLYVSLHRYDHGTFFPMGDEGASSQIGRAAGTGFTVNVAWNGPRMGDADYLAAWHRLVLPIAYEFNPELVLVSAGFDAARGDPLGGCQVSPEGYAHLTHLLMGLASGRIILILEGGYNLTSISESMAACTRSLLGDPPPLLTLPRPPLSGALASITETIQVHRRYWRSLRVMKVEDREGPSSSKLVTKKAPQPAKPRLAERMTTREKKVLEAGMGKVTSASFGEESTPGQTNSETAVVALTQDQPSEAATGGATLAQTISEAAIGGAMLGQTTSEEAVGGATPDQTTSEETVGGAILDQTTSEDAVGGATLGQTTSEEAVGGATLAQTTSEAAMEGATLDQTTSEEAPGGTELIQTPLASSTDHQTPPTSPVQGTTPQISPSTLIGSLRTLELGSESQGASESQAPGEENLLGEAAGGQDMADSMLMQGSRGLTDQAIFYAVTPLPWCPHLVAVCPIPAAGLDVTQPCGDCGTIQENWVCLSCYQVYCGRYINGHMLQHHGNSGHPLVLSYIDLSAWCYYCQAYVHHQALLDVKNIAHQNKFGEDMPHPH
Experimental: To measure the inhibition of HDAC6 activity, purified human HDAC6 (BPS Bioscience; Cat. No. 5006) is incubated with substrate Ac-Arg-Gly-Lys(Ac)-AMC peptide (Bachem Biosciences; Cat. No. I-1925) for 1 hour at 30° C. in the presence of test compounds or vehicle DMSO control. The reaction is stopped with the HDAC inhibitor trichostatin A (Sigma; Cat. No. T8552) and the amount of Arg-Gly-Lys-AMC generated is quantitated by digestion with trypsin (Sigma; Cat. No. T1426) and subsequent measurement of the amount of AMC released using a fluorescent plate reader (Pherastar; BMG Technologies) set at Ex 340 nm and Em 460 nm. Concentration response curves are generated by calculating the fluorescence increase in test compound-treated samples relative to DMSO-treated controls, and enzyme inhibition (IC50) values are determined from those curves.

IC50	SMILES
< 0.1 µM	O=C(NO)c1cn2c(n1)CN(C(=O)c1ccc(-c3ccccc3)cc1)CC2 [Compound I-2, 7-(biphenyl-4-ylcarbonyl)-N-hydroxy-5,6,7,8-tetrahydroimidazo[1,2-a]pyrazine-2-carboxamide]
< 0.1 µM	O=C(NO)c1cc2n(c1)CCN(C(=O)c1csc3ccccc13)C2 [Compound I-10, 2-(1-benzothien-3-ylcarbonyl)-N-hydroxy-1,2,3,4-tetrahydropyrrolo[1,2-a]pyrazine-7-carboxamide]
< 0.1 µM	O=C(NO)c1cc2n(n1)CCN(C(=O)c1ccc(OCc3ccccc3)cc1)C2 [Compound I-17, 5-[4-(benzyloxy)benzoyl]-N-hydroxy-4,5,6,7-tetrahydropyrazolo[1,5-a]pyrazine-2-carboxamide]
< 0.1 µM	Cn1c(C(=O)N2CCn3cc(C(=O)NO)cc3C2)cc2ccccc21 [Compound I-20, N-hydroxy-2-[(1-methyl-1H-indol-2-yl)carbonyl]-1,2,3,4-tetrahydropyrrolo[1,2-a]pyrazine-7-carboxamide]

same assay, conditions: bins: greater than 1 μM and less than 10 μM; greater than 10 μM

IC50	SMILES
1 to 10 µM	O=C(NO)c1cc2n(c1)CCN(C(=O)c1cn3ccccc3n1)C2 [Compound I-3, N-hydroxy-2-(imidazo[1,2-a]pyridin-2-ylcarbonyl)-1,2,3,4-tetrahydropyrrolo[1,2-a]pyrazine-7-carboxamide]
> 10 µM	Cc1cc(C(=O)N2CCCn3cc(C(=O)NO)cc3C2)c(C)o1 [Compound I-4, 2-(2,5-dimethyl-3-furoyl)-N-hydroxy-2,3,4,5-tetrahydro-1H-pyrrolo[1,2-a][1,4]diazepine-8-carboxamide]
1 to 10 µM	Cn1c(C(=O)N2CCCn3cc(C(=O)NO)cc3C2)cc2oc(-c3ccc(C(F)(F)F)cc3)cc21 [Compound I-5, N-hydroxy-2-({4-methyl-2-[4-(trifluoromethyl)phenyl]-4H-furo[3,2-b]pyrrol-5-yl}carbonyl)-2,3,4,5-tetrahydro-1H-pyrrolo[1,2-a][1,4]diazepine-8-carboxamide]
1 to 10 µM	CC1(C(=O)N2CCn3nc(C(=O)NO)cc3C2)CCCCC1 [Compound I-6, N-hydroxy-5-[(1-methylcyclohexyl)carbonyl]-4,5,6,7-tetrahydropyrazolo[1,5-a]pyrazine-2-carboxamide]
1 to 10 µM	Cc1c(C(=O)N2CCCn3cc(C(=O)NO)cc3C2)cnn1-c1ccccc1 [Compound I-7, N-hydroxy-2-[(5-methyl-1-phenyl-1H-pyrazol-4-yl)carbonyl]-2,3,4,5-tetrahydro-1H-pyrrolo[1,2-a][1,4]diazepine-8-carboxamide]
1 to 10 µM	O=C(NO)c1cc2n(n1)CCN(C(=O)C1(C(F)(F)F)CC1)C2 [Compound I-8, N-hydroxy-5-{[1-(trifluoromethyl)cyclopropyl]carbonyl}-4,5,6,7-tetrahydropyrazolo[1,5-a]pyrazine-2-carboxamide]
1 to 10 µM	CC(=O)c1c(C)[nH]c(C(=O)N2CCn3cc(C(=O)NO)cc3C2)c1C [Compound I-15, 2-[(4-acetyl-3,5-dimethyl-1H-pyrrol-2-yl)carbonyl]-N-hydroxy-1,2,3,4-tetrahydropyrrolo[1,2-a]pyrazine-7-carboxamide]
1 to 10 µM	O=C(NO)c1cc2n(n1)CCN(C(=O)C13CC4CC(CC(C4)C1)C3)C2 [Compound I-16, 5-(1-adamantylcarbonyl)-N-hydroxy-4,5,6,7-tetrahydropyrazolo[1,5-a]pyrazine-2-carboxamide]
1 to 10 µM	CC(C)(C)c1ccc(C(=O)N2CCCn3cc(C(=O)NO)cc3C2)cc1 [Compound I-18, 2-(4-tert-butylbenzoyl)-N-hydroxy-2,3,4,5-tetrahydro-1H-pyrrolo[1,2-a][1,4]diazepine-8-carboxamide]
> 10 µM	O=C(NO)c1cc2n(c1)CCCN(C(=O)C1CCCC1)C2 [Compound I-19, 2-(cyclopentylcarbonyl)-N-hydroxy-2,3,4,5-tetrahydro-1H-pyrrolo[1,2-a][1,4]diazepine-8-carboxamide]
